According to patent US6767890B1, “Peptides having anti-cancer and anti-inflammatory activity” (priority 1998, dated 2004):

Key:
Interleukin-1α = target: T1, Interleukin-1α (Mus musculus, UniProt P13504); test: Interleukin-1α radioligand binding; conditions: 10.0 μM; specific binding of [125I]IL-1 alpha; negative = stimulation
T1 construct: 3T3 cells; endogenous in cells; host or cells: Swiss 3T3 cells
Procedure: (§1) The peptide was further screened in vitro in a variety of enzyme and biochemical assays. Methods employed were adapted from the scientific literature to maximize reliability and reproducibility. The primary literature reference for each assay is listed in Table 11 opposite the results for each assay.
(§2) Results presented in Table 10, “Results,” are the average of duplicate determinations, unless otherwise noted.
Reference compounds were tested concurrently at 5 concentrations as an integral part of each assay to ensure the validity of the results obtained. […]
Maximum total binding and nonspecific binding were determined each time each assay was run. […]
Where inhibition constants (Ki) are presented, the Ki values were calculated using the equation of Cheng and Prusoff (Cheng, Y., Prusoff, W. H., Biochem. Pharmacol. […], 1973) using the observed IC50 of the tested compound, the concentration of radioligand employed in the assay, and the historical values for the Kd of the ligand (obtained experimentally). Where presented, the Hill Coefficient (nH), defining the scope of the competitive binding curve, was calculated using GraphPad Prism. […] Where IC50, Ki, and/or Hill Slope data is presented without Standard Error of the Mean (SEM), data are insufficient to be quantitative, and the values presented (Ki, IC50, nH) should be interpreted with caution. […]

[1] = test system: T2, Ca++/Calmodulin Dep. PK II; test: Ca++/Calmodulin Dep. PK II enzyme assay; type: biochemical, rat; conditions: 100.0 μM; average of duplicate; negative = stimulation
T2 construct: other: 100.0 μM; average of duplicate; negative = stimulation
Procedure: as §1, §2
(§3) Reference compounds were tested concurrently at 5 concentrations as an integral part of each assay to ensure the validity of the results obtained.
(§4) Enzyme assays were performed under conditions described in Table 8, “Experimental Conditions.”. The commercial suppliers and catalog numbers of substrates employed in this study are given in Table 7, “Material Sources.” The name, commercial source, and catalog numbers of concurrent reference compounds (controls) employed in this study are given in Table 9, “Reference Compound Data.” The reaction catalyzed by each enzyme is listed in Table 8, “Experimental Conditions.”
(§5) Biochemical assay results are presented in Table 10, as the percent inhibition of specific binding or activity, and unless noted are the average of duplicate tubes tested at each concentration.

Collagenase IV = target: T3, Collagenase IV (Homo sapiens, UniProt P14780); test: Collagenase IV enzyme assay; type: biochemical; conditions: 100.0 μM; average of duplicate; negative = stimulation
T3 construct: human U937; endogenous in cells; host or cells: U937 cells
Procedure: as §1, §2, §3, §4, §5

[2] = test system: croton oil-induced ear inflammation; test: Mouse-ear edema model (croton oil); type: in vivo; conditions: 20 λ of 5% peptide in carbopol topically 30 min after 10% croton oil, ear biopsy weight at 24 hrs
Excerpt: Mouse-ear edema model. Croton-oil, which contains a variety of phorbol esters, and arachidonic acid (AA) are standard inducers of inflammation in mouse ears when applied topically. Phorbol esters, especially phorbol myristyl acetate (PMA), activate one or more isozymes of the ubiquitous membrane receptor, protein kinase C (PKC), which in turn initiates several metabolic cascades leading to inflammation. As is a substrate for one of these cascades, leading to prostaglandin and leukotriene production, both of which are inflammatory. Inhibition of such inflammation by a putative bioactive agent is considered a generalized indicator of potential pharmacologic activity.
Male Swiss Webster mice (15-20 g) were purchased from B&K Universal, Kent, Wash. and maintained in the laboratory for one day prior to entering the experiment. At t=0, the ventral side of both ears of each mouse was challenged topically with 10 λ of 10% croton oil in acetone. […] The animals were sacrificed by cervical dislocation at t=24 hrs, the ears removed, and a biopsy take from each ear with an 8 mm punch. The biopsy was immediately weighed on a 4-place balance.

5-Lipoxygenase = target: T4, 5-Lipoxygenase (Rattus norvegicus, UniProt P12527); test: 5-Lipoxygenase enzyme assay; type: biochemical; conditions: 30.0 μM; average of duplicate; negative = stimulation
T4 construct: rat RBL-1 cells; endogenous in cells; host or cells: RBL-1 cells

PLA2, Pancreatic = target: T5, PLA2, Pancreatic (Sus scrofa, UniProt P00592); test: PLA2, Pancreatic enzyme assay; type: biochemical, porcine; conditions: 300.0 μM; average of duplicate; negative = stimulation
T5 construct: porcine; from tissue; host or cells: porcine pancreas
Procedure: as §1, §2, §3, §4, §5

[3] = test system: Adjuvant Induced Arthritis; test: Adjuvant Induced Arthritis Model; type: in vivo; conditions: rat, 20 mg per KG body weight orally once per day for 14 days, Day 14
Procedure: Adjuvant Induced Arthritis Model: Male Sprague-Dawley rats (160-180 g) were sensitized by injecting Fruend's Complete Adjuvant (0.5% suspension of killed mycobacterium tuberculosis (H37RA, Difco in mineral oil)). 0.05 ml was administered intradermally at a plantar site on the right hind leg of each rat. The test materials were given orally (by gavage) in 0.5% methylcelluose, at a dose level of 20 milligrams per kilo body weight, and given once per day for 14 days. The administration was started the day after sensitization. The left hind paw was measured just before sensitization and on Day 14, and the plantar edema inhibitory rate and the body weight gain rate were determined in comparison with the nonsensitized rat groups. The paw weights for each group in each test run were averaged. Activity was calculated as follows: [formula]
The Anti-inflammatory response is the difference in the mean foot volume. […] FIG. 4.

Protein Kinase C - γ = Protein Kinase C - γ (Oryctolagus cuniculus, UniProt P10829); test: Protein Kinase C - γ enzyme assay; type: biochemical, rabbit; conditions: 100.0 μM; average of duplicate; negative = stimulation
Procedure: The peptide was further screened in vitro in a variety of enzyme and biochemical assays. Methods employed were adapted from the scientific literature to maximize reliability and reproducibility.
Unless otherwise indicated, the peptide was tested in duplicate at the concentrations indicated for each assay. Results presented in Table 10, “Results,” are the average of duplicate determinations, unless otherwise noted.
as §4, §5

[4] = test system: Protein Kinase C, Non-Select.; test: Protein Kinase C, Non-Select. enzyme assay; type: biochemical, rat; conditions: 300.0 μM; average of duplicate; negative = stimulation
Procedure: as §1, §2, §3, §4, §5

T5 sequence (P00592 23-146): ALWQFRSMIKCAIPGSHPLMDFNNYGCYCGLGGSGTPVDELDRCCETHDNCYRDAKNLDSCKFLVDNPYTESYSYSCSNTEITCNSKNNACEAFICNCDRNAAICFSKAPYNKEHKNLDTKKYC
T1 sequence (P13504 20-576): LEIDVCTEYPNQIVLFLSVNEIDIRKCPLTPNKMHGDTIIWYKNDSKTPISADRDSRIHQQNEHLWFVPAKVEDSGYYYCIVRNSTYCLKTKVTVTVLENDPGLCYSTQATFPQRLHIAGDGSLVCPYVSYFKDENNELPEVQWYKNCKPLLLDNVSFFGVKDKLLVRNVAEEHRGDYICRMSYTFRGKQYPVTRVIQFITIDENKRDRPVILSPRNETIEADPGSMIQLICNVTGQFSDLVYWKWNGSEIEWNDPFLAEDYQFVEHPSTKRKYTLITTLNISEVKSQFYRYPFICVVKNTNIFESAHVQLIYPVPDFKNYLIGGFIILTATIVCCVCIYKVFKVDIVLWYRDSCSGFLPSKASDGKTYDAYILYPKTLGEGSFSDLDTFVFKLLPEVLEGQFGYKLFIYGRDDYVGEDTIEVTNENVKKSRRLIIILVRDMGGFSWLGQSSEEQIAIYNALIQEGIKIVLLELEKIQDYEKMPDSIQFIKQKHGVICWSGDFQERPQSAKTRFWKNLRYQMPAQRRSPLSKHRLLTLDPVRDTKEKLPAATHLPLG
T4 sequence (P12527 whole entry): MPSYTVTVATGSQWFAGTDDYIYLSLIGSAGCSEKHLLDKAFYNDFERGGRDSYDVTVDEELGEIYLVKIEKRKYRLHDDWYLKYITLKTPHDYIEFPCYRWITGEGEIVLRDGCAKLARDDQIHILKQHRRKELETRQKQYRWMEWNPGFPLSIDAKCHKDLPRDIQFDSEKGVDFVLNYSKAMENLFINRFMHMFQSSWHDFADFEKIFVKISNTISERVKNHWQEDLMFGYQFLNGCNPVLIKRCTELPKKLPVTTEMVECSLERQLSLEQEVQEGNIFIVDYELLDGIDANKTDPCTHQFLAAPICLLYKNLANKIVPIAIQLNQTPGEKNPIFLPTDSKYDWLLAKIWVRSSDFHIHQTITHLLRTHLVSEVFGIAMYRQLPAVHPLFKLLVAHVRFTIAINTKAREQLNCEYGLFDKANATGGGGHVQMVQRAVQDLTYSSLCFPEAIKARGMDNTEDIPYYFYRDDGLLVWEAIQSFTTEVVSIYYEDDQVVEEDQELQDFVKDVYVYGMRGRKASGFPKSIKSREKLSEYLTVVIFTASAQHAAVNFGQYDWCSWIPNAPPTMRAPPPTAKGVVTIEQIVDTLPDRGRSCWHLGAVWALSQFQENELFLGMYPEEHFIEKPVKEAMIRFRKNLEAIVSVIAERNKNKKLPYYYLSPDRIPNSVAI
T3 sequence (P14780 94-707): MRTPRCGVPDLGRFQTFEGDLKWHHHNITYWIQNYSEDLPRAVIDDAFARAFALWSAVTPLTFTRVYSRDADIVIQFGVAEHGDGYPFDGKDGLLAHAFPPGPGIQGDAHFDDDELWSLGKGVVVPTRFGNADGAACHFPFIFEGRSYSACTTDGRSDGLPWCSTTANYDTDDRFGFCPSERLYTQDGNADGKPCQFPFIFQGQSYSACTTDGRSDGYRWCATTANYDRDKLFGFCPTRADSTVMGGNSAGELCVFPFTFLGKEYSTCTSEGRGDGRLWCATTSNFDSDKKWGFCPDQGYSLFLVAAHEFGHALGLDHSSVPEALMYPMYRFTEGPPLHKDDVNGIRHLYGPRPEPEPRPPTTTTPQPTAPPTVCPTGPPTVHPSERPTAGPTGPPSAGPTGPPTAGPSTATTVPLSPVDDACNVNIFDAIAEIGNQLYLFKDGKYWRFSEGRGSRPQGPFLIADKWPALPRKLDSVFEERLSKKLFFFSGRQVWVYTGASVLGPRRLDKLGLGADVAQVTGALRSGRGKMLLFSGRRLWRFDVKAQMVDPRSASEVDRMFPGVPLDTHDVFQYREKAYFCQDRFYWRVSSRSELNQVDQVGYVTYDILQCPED

LEU-PRO-PRO-SER-ARG [Peptide]
% Inhibition (Interleukin-1α): 15% | % Inhibition [1]: 12% | % Inhibition (Collagenase IV): 2% | reduction in swelling compared to vehicle-only treated ears [2]: 61% | % Inhibition (5-Lipoxygenase): 0% | % Inhibition (PLA2, Pancreatic): −11% | anti-inflammatory response (percent inhibition) [3]: 116.3% | % Inhibition (Protein Kinase C - γ): −6% | % Inhibition [4]: −6%
